Measured values published in paper PMC7156458, “Synthetic biology based construction of biological activity-related library of fungal decalin-containing diterpenoid pyrones” (Nature Communications, 2020).

Molecular target: Aβ42 (Homo sapiens, UniProt P05067)
Experiment: Th-T (thioflavin-T) assay of Aβ42 aggregation
Assay type: biochemical
Settings: for Th-T assay plate reading, mean of three wells (Supplementary Fig. 47): source data, Ab alone and No Ab as controls

Sequence of Aβ42 (P05067 672-713): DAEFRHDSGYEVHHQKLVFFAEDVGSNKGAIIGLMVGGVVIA

With C=C1CC[C@H]2[C@]3(C)C[C@@H](C=C(C)C)O[C@H]3CC[C@]2(C)[C@@H]1Cc1c(OC)oc(CO)c(C)c1=O [Compound 17] the “Th-T fluorescence, mean of three wells” value (Aβ42 aggregation time course, reading M117) was 3.6742, the “Th-T fluorescence, mean of three wells” value (Aβ42 aggregation time course, reading M118) was 3.663 and the “Th-T fluorescence, mean of three wells” value (Aβ42 aggregation time course, reading M119) was 3.652. The “Th-T fluorescence, mean of three wells” value (Aβ42 aggregation time course, reading M120) was 3.6432, the “Th-T fluorescence, mean of three wells” value (Aβ42 aggregation time course, reading M121) was 3.639 and the “Th-T fluorescence, mean of three wells” value (Aβ42 aggregation time course, reading M122) was 3.631. The “Th-T fluorescence, mean of three wells” value (Aβ42 aggregation time course, reading M123) was 3.625, the “Th-T fluorescence, mean of three wells” value (Aβ42 aggregation time course, reading M124) was 3.645 and the “Th-T fluorescence, mean of three wells” value (Aβ42 aggregation time course, reading M125) was 3.636. The “Th-T fluorescence, mean of three wells” value (Aβ42 aggregation time course, reading M126) was 3.626, the “Th-T fluorescence, mean of three wells” value (Aβ42 aggregation time course, reading M127) was 3.63 and the “Th-T fluorescence, mean of three wells” value (Aβ42 aggregation time course, reading M128) was 3.617. The “Th-T fluorescence, mean of three wells” value (Aβ42 aggregation time course, reading M129) was 3.6361, the “Th-T fluorescence, mean of three wells” value (Aβ42 aggregation time course, reading M130) was 3.633 and the “Th-T fluorescence, mean of three wells” value (Aβ42 aggregation time course, reading M131) was 3.621. The “Th-T fluorescence, mean of three wells” value (Aβ42 aggregation time course, reading M132) was 3.621, the “Th-T fluorescence, mean of three wells” value (Aβ42 aggregation time course, reading M133) was 3.612 and the “Th-T fluorescence, mean of three wells” value (Aβ42 aggregation time course, reading M134) was 3.622. The “Th-T fluorescence, mean of three wells” value (Aβ42 aggregation time course, reading M135) was 3.594, the “Th-T fluorescence, mean of three wells” value (Aβ42 aggregation time course, reading M136) was 3.604 and the “Th-T fluorescence, mean of three wells” value (Supplementary Fig. 47, reading M137) was 3.585. For the same molecule, the “Th-T fluorescence, mean of three wells” value (Supplementary Fig. 47, reading M138) was 3.583, the “Th-T fluorescence, mean of three wells” value (Supplementary Fig. 47, reading M139) was 3.585 and the “Th-T fluorescence, mean of three wells” value (Supplementary Fig. 47, reading M140) was 3.575. The “Th-T fluorescence, mean of three wells” value (Supplementary Fig. 47, reading M141) was 3.571, the “Th-T fluorescence, mean of three wells” value (Supplementary Fig. 47, reading M142) was 3.57 and the “Th-T fluorescence, mean of three wells” value (Supplementary Fig. 47, reading M143) was 3.569. The “Th-T fluorescence, mean of three wells” value (Supplementary Fig. 47, reading M144) was 3.562, the “Th-T fluorescence, mean of three wells” value (Supplementary Fig. 47, reading M145) was 3.551 and the “Th-T fluorescence, mean of three wells” value (Supplementary Fig. 47 source data, measurement M37 of time course) was 3.249. The “Th-T fluorescence, mean of three wells” value (Supplementary Fig. 47 source data, measurement M38 of time course) was 3.349, the “Th-T fluorescence, mean of three wells” value (Supplementary Fig. 47 source data, measurement M39 of time course) was 3.376 and the “Th-T fluorescence, mean of three wells” value (Supplementary Fig. 47 source data, measurement M40 of time course) was 3.376. For the same molecule, the “Th-T fluorescence, mean of three wells” value (Supplementary Fig. 47 source data, measurement M41 of time course) was 3.367, the “Th-T fluorescence, mean of three wells” value (Supplementary Fig. 47 source data, measurement M42 of time course) was 3.371 and the “Th-T fluorescence, mean of three wells” value (Supplementary Fig. 47 source data, measurement M43 of time course) was 3.406. For the same molecule, the “Th-T fluorescence, mean of three wells” value (Supplementary Fig. 47 source data, measurement M44 of time course) was 3.418, the “Th-T fluorescence, mean of three wells” value (Supplementary Fig. 47 source data, measurement M45 of time course) was 3.459 and the “Th-T fluorescence, mean of three wells” value (Supplementary Fig. 47 source data, measurement M46 of time course) was 3.456. The “Th-T fluorescence, mean of three wells” value (Supplementary Fig. 47 source data, measurement M47 of time course) was 3.465, the “Th-T fluorescence, mean of three wells” value (Supplementary Fig. 47 source data, measurement M48 of time course) was 3.489 and the “Th-T fluorescence, mean of three wells” value (Supplementary Fig. 47 source data, measurement M49 of time course) was 3.497. For the same molecule, the “Th-T fluorescence, mean of three wells” value (Supplementary Fig. 47 source data, measurement M50 of time course) was 3.516, the “Th-T fluorescence, mean of three wells” value (Supplementary Fig. 47 source data, measurement M51 of time course) was 3.557 and the “Th-T fluorescence, mean of three wells” value (Supplementary Fig. 47 source data, measurement M52 of time course) was 3.55. The “Th-T fluorescence, mean of three wells” value (Supplementary Fig. 47 source data, measurement M53 of time course) was 3.554, the “Th-T fluorescence, mean of three wells” value (Supplementary Fig. 47 source data, measurement M54 of time course) was 3.5687 and the “Th-T fluorescence, mean of three wells” value (Supplementary Fig. 47 source data, measurement M55 of time course) was 3.6. The “Th-T fluorescence, mean of three wells” value (Supplementary Fig. 47 source data, measurement M56 of time course) was 3.63, the “Th-T assay plate reading, mean of three wells (Supplementary Fig. 47)” value (from here on “Th-T assay plate reading, mean”) (measurement M1) was 0.2517 and the “Th-T assay plate reading, mean” value (measurement M2) was 0.2528. For the same molecule, the “Th-T assay plate reading, mean” value (measurement M3) was 0.2961, the “Th-T assay plate reading, mean” value (measurement M4) was 0.352 and the “Th-T assay plate reading, mean” value (measurement M5) was 0.4245. For the same molecule, the “Th-T assay plate reading, mean” value (measurement M6) was 0.4941, the “Th-T assay plate reading, mean” value (measurement M7) was 0.5517 and the “Th-T assay plate reading, mean” value (measurement M8) was 0.6173. For the same molecule, the “Th-T assay plate reading, mean” value (measurement M9) was 0.6978, the “Th-T assay plate reading, mean” value (measurement M10) was 0.9149 and the “Th-T assay plate reading, mean” value (measurement M11) was 1.381. For the same molecule, the “Th-T assay plate reading, mean” value (measurement M12) was 1.864, the “Th-T assay plate reading, mean” value (measurement M13) was 2.227 and the “Th-T assay plate reading, mean” value (measurement M14) was 2.461. The “Th-T assay plate reading, mean” value (measurement M15) was 2.575, the “Th-T assay plate reading, mean” value (measurement M16) was 2.619 and the “Th-T fluorescence, mean of three wells” value (reading M17, Supplementary Fig. 47 source data) was 2.658. For the same molecule, the “Th-T fluorescence, mean of three wells” value (reading M18, Supplementary Fig. 47 source data) was 2.682, the “Th-T fluorescence, mean of three wells” value (reading M19, Supplementary Fig. 47 source data) was 2.683 and the “Th-T fluorescence, mean of three wells” value (reading M20, Supplementary Fig. 47 source data) was 2.726. For the same molecule, the “Th-T fluorescence, mean of three wells” value (reading M21, Supplementary Fig. 47 source data) was 2.74, the “Th-T fluorescence, mean of three wells” value (reading M22, Supplementary Fig. 47 source data) was 2.776 and the “Th-T fluorescence, mean of three wells” value (reading M23, Supplementary Fig. 47 source data) was 2.7833. The “Th-T fluorescence, mean of three wells” value (reading M24, Supplementary Fig. 47 source data) was 2.808, the “Th-T fluorescence, mean of three wells” value (reading M25, Supplementary Fig. 47 source data) was 2.851 and the “Th-T fluorescence, mean of three wells” value (reading M26, Supplementary Fig. 47 source data) was 2.893. For the same molecule, the “Th-T fluorescence, mean of three wells” value (reading M27, Supplementary Fig. 47 source data) was 2.879, the “Th-T fluorescence, mean of three wells” value (reading M28, Supplementary Fig. 47 source data) was 2.908 and the “Th-T fluorescence, mean of three wells” value (reading M29, Supplementary Fig. 47 source data) was 2.914. For the same molecule, the “Th-T fluorescence, mean of three wells” value (reading M30, Supplementary Fig. 47 source data) was 2.944, the “Th-T fluorescence, mean of three wells” value (reading M31, Supplementary Fig. 47 source data) was 2.96 and the “Th-T fluorescence, mean of three wells” value (reading M32, Supplementary Fig. 47 source data) was 3.025. The “Th-T fluorescence, mean of three wells” value (reading M33, Supplementary Fig. 47 source data) was 3.031, the “Th-T fluorescence, mean of three wells” value (reading M34, Supplementary Fig. 47 source data) was 3.078 and the “Th-T fluorescence, mean of three wells” value (reading M35, Supplementary Fig. 47 source data) was 3.103. The “Th-T fluorescence, mean of three wells” value (reading M36, Supplementary Fig. 47 source data) was 3.12, the “Th-T fluorescence, mean of three wells” value (time course, reading M57) was 3.617 and the “Th-T fluorescence, mean of three wells” value (time course, reading M58) was 3.628. For the same molecule, the “Th-T fluorescence, mean of three wells” value (time course, reading M59) was 3.637, the “Th-T fluorescence, mean of three wells” value (time course, reading M60) was 3.637 and the “Th-T fluorescence, mean of three wells” value (time course, reading M61) was 3.653. For the same molecule, the “Th-T fluorescence, mean of three wells” value (time course, reading M62) was 3.653, the “Th-T fluorescence, mean of three wells” value (time course, reading M63) was 3.655 and the “Th-T fluorescence, mean of three wells” value (time course, reading M64) was 3.667. The “Th-T fluorescence, mean of three wells” value (time course, reading M65) was 3.662, the “Th-T fluorescence, mean of three wells” value (time course, reading M66) was 3.684 and the “Th-T fluorescence, mean of three wells” value (time course, reading M67) was 3.7096. For the same molecule, the “Th-T fluorescence, mean of three wells” value (time-course reading M97, Supplementary Fig. 47 source data) was 3.715, the “Th-T fluorescence, mean of three wells” value (time-course reading M98, Supplementary Fig. 47 source data) was 3.727 and the “Th-T fluorescence, mean of three wells” value (time-course reading M99, Supplementary Fig. 47 source data) was 3.7169. The “Th-T fluorescence, mean of three wells” value (time-course reading M100, Supplementary Fig. 47 source data) was 3.715, the “Th-T fluorescence, mean of three wells” value (time-course reading M101, Supplementary Fig. 47 source data) was 3.715 and the “Th-T fluorescence, mean of three wells” value (time-course reading M102, Supplementary Fig. 47 source data) was 3.7. For the same molecule, the “Th-T fluorescence, mean of three wells” value (time-course reading M103, Supplementary Fig. 47 source data) was 3.686, the “Th-T fluorescence, mean of three wells” value (time-course reading M104, Supplementary Fig. 47 source data) was 3.695 and the “Th-T fluorescence, mean of three wells” value (time-course reading M105, Supplementary Fig. 47 source data) was 3.722. The “Th-T fluorescence, mean of three wells” value (time-course reading M106, Supplementary Fig. 47 source data) was 3.704, the “Th-T fluorescence, mean of three wells” value (time-course reading M107, Supplementary Fig. 47 source data) was 3.71 and the “Th-T fluorescence, mean of three wells” value (time-course reading M108, Supplementary Fig. 47 source data) was 3.718. For the same molecule, the “Th-T fluorescence, mean of three wells” value (time-course reading M109, Supplementary Fig. 47 source data) was 3.713, the “Th-T fluorescence, mean of three wells” value (time-course reading M110, Supplementary Fig. 47 source data) was 3.7 and the “Th-T fluorescence, mean of three wells” value (time-course reading M111, Supplementary Fig. 47 source data) was 3.699. For the same molecule, the “Th-T fluorescence, mean of three wells” value (time-course reading M112, Supplementary Fig. 47 source data) was 3.698, the “Th-T fluorescence, mean of three wells” value (time-course reading M113, Supplementary Fig. 47 source data) was 3.697 and the “Th-T fluorescence, mean of three wells” value (time-course reading M114, Supplementary Fig. 47 source data) was 3.674. The “Th-T fluorescence, mean of three wells” value (time-course reading M115, Supplementary Fig. 47 source data) was 3.682 and the “Th-T fluorescence, mean of three wells” value (time-course reading M116, Supplementary Fig. 47 source data) was 3.669.
